Experimental data reported in publication PMC10439952, “JT002, a small molecule inhibitor of the NLRP3 inflammasome for the treatment of autoinflammatory disorders” (Scientific Reports, 2023).
“Also recorded” adds a separate entry of the source.

Target: NLRP3 inflammasome (Mus musculus, UniProt Q8R4B8)
Assay: In vivo target engagement: ex vivo LPS + ATP stimulated IL-1β production in blood of orally dosed mice
Details: single oral dose 25 mg/kg
Description: In vivo pharmacodynamics (PD) were evaluated in mice for determination of target engagement as this species is routinely used for assessment of preclinical efficacy. Treatment of fresh, whole blood with LPS plus ATP results in the NLRP3-dependent release of IL-1β, thus providing a robust method for tracking target engagement of NLRP3 inflammasome inhibitors in the circulation after oral dose administration[36],[47]. In vivo target engagement using ex vivo stimulation of blood was evaluated in mice at various times after oral dosing of JT002. For each time point tested, one group of mice received a single oral dose of 25 mg/kg JT002 (n = 8/group) and another group received the vehicle control (n = 8/group). At the time of harvest, blood was collected from each animal and an aliquot removed and processed to plasma for determination of JT002 concentrations. The remaining blood was stimulated ex vivo with LPS plus ATP followed by analysis of IL-1β concentrations (Fig. 3A). […] Consistent with these findings, plasma concentrations of JT002 decreased over time, with mean concentrations of ≥ 4.0 µM through 8 h and a mean concentration of 6 nM at the 24-h sampling (Fig. 3C,D). […]

NLRP3 inflammasome, sequence (Q8R4B8 whole entry): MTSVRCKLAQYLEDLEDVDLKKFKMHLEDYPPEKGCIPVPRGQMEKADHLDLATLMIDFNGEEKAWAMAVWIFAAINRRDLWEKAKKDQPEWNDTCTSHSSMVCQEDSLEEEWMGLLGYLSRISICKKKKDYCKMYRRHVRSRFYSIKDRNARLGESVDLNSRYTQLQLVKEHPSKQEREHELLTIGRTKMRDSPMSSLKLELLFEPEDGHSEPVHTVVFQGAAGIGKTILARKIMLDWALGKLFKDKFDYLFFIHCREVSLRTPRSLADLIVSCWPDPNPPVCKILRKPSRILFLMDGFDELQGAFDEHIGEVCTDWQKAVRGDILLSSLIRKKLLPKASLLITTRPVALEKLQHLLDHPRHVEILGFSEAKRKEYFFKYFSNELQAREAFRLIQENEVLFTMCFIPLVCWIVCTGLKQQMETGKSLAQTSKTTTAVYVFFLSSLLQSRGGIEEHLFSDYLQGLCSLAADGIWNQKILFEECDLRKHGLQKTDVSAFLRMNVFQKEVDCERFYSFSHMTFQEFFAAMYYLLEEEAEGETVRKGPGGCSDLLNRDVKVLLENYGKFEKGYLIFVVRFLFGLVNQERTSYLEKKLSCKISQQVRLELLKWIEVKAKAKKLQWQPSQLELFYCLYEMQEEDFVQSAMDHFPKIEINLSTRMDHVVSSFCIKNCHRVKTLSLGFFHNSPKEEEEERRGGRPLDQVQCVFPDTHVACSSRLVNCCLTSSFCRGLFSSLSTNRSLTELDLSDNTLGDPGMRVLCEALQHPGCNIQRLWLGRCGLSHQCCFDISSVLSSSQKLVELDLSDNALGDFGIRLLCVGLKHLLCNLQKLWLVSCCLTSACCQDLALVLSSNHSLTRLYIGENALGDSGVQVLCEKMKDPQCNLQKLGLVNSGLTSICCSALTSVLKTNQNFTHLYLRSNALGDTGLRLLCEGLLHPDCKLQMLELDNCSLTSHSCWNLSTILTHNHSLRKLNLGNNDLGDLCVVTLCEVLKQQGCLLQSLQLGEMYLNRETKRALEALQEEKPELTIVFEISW

## CO[C@@H]1COc2c(S(=O)(=O)NC(=O)Nc3c4c(cc5c3CCC5)CCC4)cnn2C1 [JT002]
mouse, 4- and 8-h post-dosing
  inhibition at 25 mg/kg: ≥ 97%
24-h post-dosing, 25 mg/kg
  inhibition of ex vivo stimulated IL-1β production: no significant inhibition; also recorded: lack of inhibition
